Test results taken from paper PMC8835499, “Challenging Approach to the Development of Novel Estrogen Receptor Modulators Based on the Chemical Properties of Guaiazulene” (International Journal of Molecular Sciences, 2022).

Biological target: T1, estrogen receptor α (ERα) (Homo sapiens, UniProt P03372)
T1 construct: gene ESR1; ERα LBD (human recombinant ERα)
T1 sequence (P03372 311-547 limits assumed): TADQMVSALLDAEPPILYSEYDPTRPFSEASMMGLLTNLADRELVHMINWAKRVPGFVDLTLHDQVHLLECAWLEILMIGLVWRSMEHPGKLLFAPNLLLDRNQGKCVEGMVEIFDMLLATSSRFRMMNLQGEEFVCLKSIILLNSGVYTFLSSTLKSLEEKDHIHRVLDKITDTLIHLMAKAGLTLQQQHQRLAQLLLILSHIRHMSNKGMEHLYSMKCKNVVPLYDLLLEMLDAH
Experiment: competitive radioligand binding assay with [3H][…]β-estradiol (nitrocellulose filtration)

IC50: 1.22 nM
Structure (SMILES): Cc1cc(C=C(c2ccc(O)cc2)c2ccc(O)cc2)c2c(C)ccc(C(C)C)cc1-2 [Az-01, 4,4′-(2-(5-Isopropyl-3,8-dimethylazulen-1-yl)ethene-1,1-diyl)diphenol]
